Source: patent publication EP0532716B1, “NEW […] WITH IMUNOMODULATING ACTIVITY AND PREPARATION THEREOF” (INSTITUTO […] T[…] NAVARRA, S.A., priority 1990, dated 1992)
Ends that are not written are not given here.

Tests used:
Format in all cases: cell-based
Daudi target cells = assay: 51Cr release assay: cytotoxic activity of peptide-activated lymphomononuclear cells against Daudi target cells; conditions: lymphomononuclear cells from three healthy donors, cultured 4 days with 20 micrograms of peptide; Mean ± Standard error
Text: (§1) Generation of cells with cytotoxic activity towards NK sensitive and NK resistant target cells.
(§2) Peripheral blood mononuclear cells from healthy donors were obtained by leukapheresis, processing 5 to 10 liters of whole blood, using a Fenwall CS-3000 continuous-flow cell separator (Fenwall Laboratories, Deerfield, Illinois, USA). Vascular access was obtained with a double lumen central venous catheter.
(§3) Separated lymphomononuclear cells are washed, counted and resuspended at a concentration of 2x10^6 per ml in RPMI-1640 medium containing 10 units of penicillin per ml, 200 µg of gentamycin per ml, 2mM of glutamine per ml and 2,5% of autologous serum in a PL-732 culture bag (Fenwall Laboratories, Deerfield, Illinois, USA).
(§4) The incubation medium contained 20 micrograms of the peptide being studied. • Peptide 1 (Peptide of Example 1). • Peptide 2 (Peptide of Example 2). • Peptide 3 (Peptide of Example 3). • Peptide 4 (Peptide of Example 4). […]. In this pentadecapeptide Proline is absent. This control peptide has in common with the peptides object the invention only aa11=Asp).
(§5) The cells are cultured for 4 days in a moist-air incubator at 37^ºC, 5% CO2 and 21% O2, One ml sample is drawn daily for microbiological studies.
(§6) Changes in the cytotoxic ability of lymphomononuclear cells before and after peptide activation are measured with the ^51Cr release assay, using K562 and Daudi target cells (Table I). Phenotypic changes of lymphomononuclear cells before and after peptide activation are also assessed with fluorescein labeled […] antibodies and automated flow cytometry (Table II). It is well known that lymphomononuclear cells are very heterogeneous, but the presence of surface markers (CD) allows the description of their phenotypes (Weissman IL, Fathman CG, J Exp Med (1973) 137:504; Small M, Herzenberg CA, Weissman IL, Cell Immunol (1975) 15:109).

K562 target cells = assay: 51Cr release assay: cytotoxic activity of peptide-activated lymphomononuclear cells against K562 target cells; conditions: lymphomononuclear cells from three healthy donors, cultured 4 days with 20 micrograms of peptide; Mean ± Standard error
Text: as §1, §2, §3, §4, §5, §6

lymphomononuclear cells = assay: Phenotypes of lymphomononuclear cells after peptide activation (fluorescein labeled antibodies, automated flow cytometry); conditions: 20 micrograms of peptide, 4 days, three healthy donors, Mean ± Standard error
Procedure: as §2, §3
The incubation medium contained 20 micrograms of the peptide being studied. • Peptide 1 (Peptide of Example 1). • Peptide 2 (Peptide of Example 2). • Peptide 3 (Peptide of Example 3). • Peptide 4 (Peptide of Example 4). Control Peptide (Ala-Asp-Ala-Gln-Gln-Asn-Lys-Phe-Asn-Lys-Asp-Gln-Gln-Ser-Val. In this pentadecapeptide Proline is absent. This control peptide has in common with the peptides object the invention only aa11=Asp).
as §5, §6

Compound | CYTOTOXIC ACTIVITY (%) DAUDI (Daudi target cells) [%] | CYTOTOXIC ACTIVITY (%) K562 (K562 target cells) [%] | CELLS EXPRESSING SURFACE MARKERS (%) CD3 (lymphomononuclear cells) [%] | CELLS EXPRESSING SURFACE MARKERS (%) CD8 (lymphomononuclear cells) [%] | CELLS EXPRESSING SURFACE MARKERS (%) CD11b (lymphomononuclear cells) [%] | CELLS EXPRESSING SURFACE MARKERS (%) CD14 (lymphomononuclear cells) [%] | CELLS EXPRESSING SURFACE MARKERS (%) CD16 (lymphomononuclear cells) [%] | CELLS EXPRESSING SURFACE MARKERS (%) CD56 (lymphomononuclear cells) [%]
CC[C@H](C)[C@H](NC(=O)[C@H](CCC(=O)O)NC(=O)[C@H](CCCCN)NC(=O)[C@H](CO)NC(=O)[C@@H](NC(=O)[C@H](CO)NC(=O)[C@@H]1CCCN1C(=O)[C@H](CC(=O)O)NC(=O)[C@H](CC(=O)O)NC(=O)[C@H](CCCCN)NC(=O)[C@H](CC(C)C)NC(=O)[C@H](CO)NC(=O)[C@H](CCC(N)=O)NC(=O)[C@@H](NC(=O)[C@H](Cc1ccccc1)NC(=O)CNC(=O)[C@@H](N)CC(N)=O)[C@@H](C)CC)C(C)C)C(=O)N[C@@H](CC(C)C)C(=O)N[C@@H](C)C(=O)N[C@@H](CCC(=O)O)C(=O)N[C@@H](C)C(=O)N[C@@H](CCCCN)C(=O)N[C@H](C(=O)O)C(C)C [Peptide 4] | 56 ± 6 | 58 ± 7 |  |  |  |  |  | 
EILNMPNLNEEQRNV [Peptide 3] | 58 ± 9 | 59 ± 9 | 59 ± 3 | 17 ± 2 | 23 ± 4 | 18 ± 3 | 21 ± 5 | 18 ± 5
CC(C)[C@H](NC(=O)[C@H](CO)NC(=O)[C@H](CCC(N)=O)NC(=O)[C@H](CCC(N)=O)NC(=O)[C@H](CC(=O)O)NC(=O)[C@H](CCCCN)NC(=O)[C@H](CC(N)=O)NC(=O)[C@H](Cc1ccccc1)NC(=O)[C@H](CCCCN)NC(=O)[C@H](CC(N)=O)NC(=O)[C@H](CCC(N)=O)NC(=O)[C@H](CCC(N)=O)NC(=O)[C@H](C)NC(=O)[C@H](CC(=O)O)NC(=O)[C@H](C)N)C(=O)O [Control Peptide, Ala-Asp-Ala-Gln-Gln-Asn-Lys-Phe-Asn-Lys-Asp-Gln-Gln-Ser-Val, reference compound] | 10 ± 4 | 12 ± 8 |  |  |  |  |  | 
CC[C@H](C)[C@H](NC(=O)[C@H](CCC(=O)O)NC(=O)[C@H](CCCCN)NC(=O)[C@H](CO)NC(=O)[C@@H](NC(=O)[C@H](CO)NC(=O)[C@@H]1CCCN1C(=O)[C@H](CC(=O)O)NC(=O)[C@H](CC(=O)O)NC(=O)[C@H](CCCCN)NC(=O)[C@H](CC(C)C)NC(=O)[C@@H](N)CO)C(C)C)C(=O)N[C@@H](CC(C)C)C(=O)N[C@@H](C)C(=O)N[C@H](C(=O)O)C(C)C [Peptide 2] | 62 ± 8 | 62 ± 7 | 58 ± 2 | 18 ± 2 | 24 ± 3 | 18 ± 3 | 22 ± 6 | 17 ± 5
NVLGAPKKLNESQAV [Peptide 1] | 68 ± 6 | 63 ± 8 | 60 ± 1 | 17 ± 1 | 23 ± 5 | 17 ± 4 | 22 ± 7 | 18 ± 6
